According to paper PMC2904801, “A Metazoan/Plant-like Capping Enzyme and Cap Modified Nucleotides in the Unicellular Eukaryote Trichomonas vaginalis” (PLoS Pathogens, 2010):

Biological target: T1, TvCE (Trichomonas vaginalis, UniProt A2DUZ5)
T1 construct: gene TVAG_187730; full-length (561 residues, 69 kDa without tag), N-terminal His tag from pET200D, E. coli BL21, ~71 kDa monomer
T1 sequence (A2DUZ5 1-561): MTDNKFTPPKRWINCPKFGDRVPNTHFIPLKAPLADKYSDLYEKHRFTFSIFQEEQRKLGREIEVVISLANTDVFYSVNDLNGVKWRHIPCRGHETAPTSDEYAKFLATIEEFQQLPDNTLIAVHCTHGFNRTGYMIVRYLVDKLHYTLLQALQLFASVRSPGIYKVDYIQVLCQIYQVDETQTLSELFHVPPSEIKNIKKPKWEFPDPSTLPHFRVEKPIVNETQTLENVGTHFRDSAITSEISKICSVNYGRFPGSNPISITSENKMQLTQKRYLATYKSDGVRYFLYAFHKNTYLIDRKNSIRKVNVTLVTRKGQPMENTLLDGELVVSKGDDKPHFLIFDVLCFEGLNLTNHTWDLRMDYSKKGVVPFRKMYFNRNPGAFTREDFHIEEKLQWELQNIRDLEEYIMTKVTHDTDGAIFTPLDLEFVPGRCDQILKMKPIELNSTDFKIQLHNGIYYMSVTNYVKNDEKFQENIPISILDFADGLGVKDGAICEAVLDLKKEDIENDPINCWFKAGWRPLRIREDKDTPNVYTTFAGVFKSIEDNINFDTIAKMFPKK
Test: SDS-PAGE autoradiography of covalent enzyme-GMP intermediate; cold NTP competition
Assay type: biochemical
Conditions: guanylyltransferase domain; labelled compound; covalent enzyme-(lysyl-N)-GMP; 50 mM Tris-acetate pH 7.0, 5 mM DTT, 2.5 mM MgCl2, 37 °C

## Nc1nc2c(ncn2[C@@H]2O[C@H](COP(=O)(O)OP(=O)(O)OP(=O)(O)O)[C@@H](O)[C@H]2O)c(=O)[nH]1 [[α-^32P]GTP]
  SDS-PAGE autoradiography of covalent enzyme-GMP intermediate; cold NTP competiti: displayed an absolute specificity for a GTP substrate
